The text below walks through data of publication PMC8485799, “Synthesis and Antiprotozoal Profile of 3,4,5‐Trisubstituted Isoxazoles” (ChemistryOpen, 2021).

Each structure is given as a SMILES string. Where two headings read alike, the source gives them in different places.

Data set [1] concerns promastigote forms of Leishmania amazonensis (WHOM/BR/75/JOSEFA strain). The data set can be described thus: Antiproliferative assay (XTT), promastigote forms, 72 h. The data set is classed as cell-based. Conditions: for IC50: promastigote form, 72 h, XTT, read-out: L. amazonensis IC50. Summed up: (§1)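 Parasites at 1×10^6 mL^−1 with compound (DMSO stock diluted in medium): L. amazonensis promastigotes in Warren medium + 10% FBS at 25 °C for 72 h, T. cruzi epimastigotes in LIT medium + 10% FBS at 28 °C for 96 h. Viability by XTT/PMS for 4 h, absorbance at 450 nm. IC50 from % viable versus control.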

Data set [2] concerns epimastigote forms of Trypanosoma cruzi (Y strain). The data set can be described thus: Antiproliferative assay (XTT), epimastigote forms, 96 h. The data set is classed as cell-based. Conditions: for IC50: epimastigote form, 96 h, XTT, read-out: T. cruzi IC50. In a few lines: as §1
Data set [3] deals with fibroblast line (L929). The data set is described as follows: Cytotoxicity assay in mammalian cells (MTT), fibroblasts, 72 h. The data set is classed as cell-based. Summed up: (§2)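 Cells pre-grown 24 h to confluence (L929 2.5×10^5, J774 A1 5×10^5 cells.mL^−1), then exposed to compound dilutions at 37 °C, 5 % CO2: L929 in DMEM/10 % FBS for 72 h, J774 A1 in RPMI‐1640/10 % FBS for 48 h. MTT (2 mg.mL^−1, 4 h), formazan read at […]; CC50 from viability versus untreated controls.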

Data set [4] deals with macrophages (J774 A1). The data set is described as follows: Cytotoxicity assay in mammalian cells (MTT), macrophages, 48 h. The data set is classed as cell-based. Summed up:
as §2

Data set [5] in a line: Cytotoxicity assay in mammalian cells (MTT), fibroblasts, 72 h. Conditions: mouse, L929 fibroblast cells, pH 7.2; 50 % inhibition of fibroblast growth, 72 h, MTT. The data set is classed as cell-based. Summed up: as §2
Data set [6] can be described thus: Cytotoxicity assay in mammalian cells (MTT), macrophages, 48 h. Conditions: mouse, J774 A1 macrophages, pH 7.2; 50 % inhibition of macrophages growth, 48 h, MTT. The data set is classed as cell-based. Summed up:
as §2

The subject of data set [7] is both forms of L. amazonensis. Set-up: method as in PMID 27597410. Conditions: cited from earlier work.

As for `CCOC(=O)c1noc(-c2ccc([N+](=O)[O-])cc2)c1CNc1ccccc1` [2 aa, 3‐Carboxyethyl‐4‐(phenyl)aminomethyl‐5‐(4‐nitrophenyl)isoxazole], the IC50 in data set [1] was 34.8 ± 1.7 µM; in data set [2], 54.2 ± 3 µM. The CC50 in data set [3] is 270 ± 8.9 µM; in data set [4] it was 202 ± 6.5 µM.

`COc1ccc(NCc2c(C(=O)N/N=C/c3ccc(-c4cccs4)s3)noc2-c2ccc(Cl)cc2)cc1` [6 dc] displayed a melting point of 199.9 to 202.7 °C. The IC50 in data set [1] (Leishmania amazonensis) was 32.7 ± 3 µM. Further, in data set [1] (fibroblast vs promastigote), the “SIL-F, selectivity index (Fibroblast CC50/L. amazonensis IC50)” value was 12.16. Further, in data set [1] (macrophages vs promastigote), the “SIL-M, selectivity index (Macrophages CC50/L. amazonensis IC50)” value was determined as 9.45. Also, in data set [2] (Trypanosoma cruzi), the IC50 worked out at 30.5 ± 1.6 µM. In addition, in data set [2] (fibroblast vs epimastigote), the “SIT-F, selectivity index (Fibroblast CC50/T. cruzi IC50)” value worked out at 13.0. The “SIT-M, selectivity index (Macrophages CC50/T. cruzi IC50)” value in data set [2] (macrophages vs epimastigote) is on record as 10.1. This molecule also had a CC50 at 72 h in data set [5] of 398 ± 7.8 µM. Moreover, the CC50 at 48 h in data set [6] is 309 ± 8 µM.

Take `O=C(N/N=C/c1cccs1)c1nn(-c2ccccc2)c(=O)c2c1cnn2-c1ccccc1` [IV]: the “Activity against both forms of L. amazonensis” value in data set [7] is “good activity values”.

Turning to `O=C(N/N=C/c1ccc(-c2cccs2)s1)c1nn(-c2ccccc2)c(=O)c2c1cnn2-c1ccccc1` [V], the “Activity against both forms of L. amazonensis” value in data set [7] is recorded as “good activity values”.

In general, IC50 refers to the concentration at which inhibition is half-maximal. For orientation: CC50 means the concentration giving 50% cytotoxicity. High values mean better tolerance by the cells, low ones harm at low concentration. Broadly, the melting point is the temperature, or range, at which the solid turns liquid.
